Measurements taken from the supplement of paper PMC10307832.

Key:
Test in all cases: relative viability (nuclei count vs DMSO), 5 days (fraction); higher = more cells survive
[1] = compound: Cn1cc(-c2cnn3c(N)c(Br)c([C@@H]4CCCNC4)nc23)cn1 + CCNC(=O)c1noc(-c2cc(C(C)C)c(O)cc2O)c1-c1ccc(CN2CCOCC2)cc1 [Luminespib] (partner 0.01 µM)
Outline: (§1)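 Lung cancer cell lines in 1536-well plates got either a single drug or a fixed anchor-drug dose together with five library-drug doses (not always all listed) in √10 steps, by pin tool, on the day after seeding. Nuclei were counted after 5 days, and relative viability is the treated-to-vehicle ratio of nuclei counts. Values are medians of duplicate plates.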

[2] = compound: Cn1cc(-c2cnn3c(N)c(Br)c([C@@H]4CCCNC4)nc23)cn1 + C[C@]1(O)C[C@@H](c2nc(-c3ccc4ccc(-c5ccccc5)nc4c3)c3c(N)nccn32)C1 [Linsitinib] (partner 1 µM)
Outline: as §1

[3] = compound: Cn1cc(-c2cnn3c(N)c(Br)c([C@@H]4CCCNC4)nc23)cn1 + CS(=O)(=O)CCNCc1ccc(-c2ccc3ncnc(Nc4ccc(OCc5cccc(F)c5)c(Cl)c4)c3c2)o1 [Lapatinib] (partner 2 µM)
Outline: as §1

[4] = compound: Cn1cc(-c2cnn3c(N)c(Br)c([C@@H]4CCCNC4)nc23)cn1 + COc1cccc2cc(-c3nc([C@H]4CC[C@H](C(=O)O)CC4)n4ncnc(N)c34)[nH]c12 [OSI-027] (partner 0.5 µM)
Outline: as §1

Cell Line	relative viability ([1]; first compound 0.05 µM)	relative viability ([1]; first compound 0.1581 µM)	relative viability ([1]; first compound 0.5 µM)	relative viability ([1]; first compound 1.581 µM)	relative viability ([1]; first compound 5 µM)	relative viability ([2]; first compound 0.05 µM)	relative viability ([2]; first compound 0.1581 µM)	relative viability ([2]; first compound 0.5 µM)	relative viability ([2]; first compound 1.581 µM)	relative viability ([2]; first compound 5 µM)	relative viability ([3]; first compound 0.05 µM)	relative viability ([3]; first compound 0.1581 µM)	relative viability ([3]; first compound 0.5 µM)	relative viability ([3]; first compound 1.581 µM)	relative viability ([3]; first compound 5 µM)	relative viability ([4]; first compound 0.05 µM)	relative viability ([4]; first compound 0.1581 µM)	relative viability ([4]; first compound 0.5 µM)	relative viability ([4]; first compound 1.581 µM)	relative viability ([4]; first compound 5 µM)
NCI-H1666	0.971	1.02	0.906	0.958	0.917	0.896	0.745	0.653	0.714	0.711	0.576	0.648	0.555	0.559	0.594	0.827	0.966	0.913	0.812	0.66
NCI-H1355	0.691	0.662	0.699	0.609	0.735	0.798	0.911	0.738	0.82	0.814	1	1.08	0.92	0.969	0.859	0.442	0.469	0.416	0.372	0.328
HCC-827	0.551	0.843	0.485	0.674	0.332	0.934	0.958	0.947	1.05	0.953	0.234	0.197	0.196	0.178	0.152	0.731	0.907	0.71	0.715	0.705
HARA	0.752	0.706	0.631	0.376	0.16	1.11	1.03	1.23	0.761	0.402	0.728	0.873	1.08	0.626	0.179	0.469	0.606	0.685	0.408	0.149
NCI-H322M	0.71	0.33	0.426	0.376	0.279	0.86	0.943	0.889	0.864	0.828	0.488	0.585	0.621	0.493	0.512	0.46	0.356	0.466	0.354	0.242
NCI-H2347	0.506	0.677	0.473	0.409	0.297	0.992	1.01	0.986	0.917	0.85	0.919	1.03	1.05	0.902	0.645	0.418	0.594	0.291	0.377	0.326
NCI-H1975	0.105	0.197	0.256	0.139	0.167	1.08	0.918	0.842	0.79	0.805	0.888	0.862	0.835	0.635	0.798	0.895	0.72	0.706	0.554	0.654
UMC-11	1.11	0.884	0.972	0.556	0.392	1.18	1.08	0.991	0.818	0.507	1.09	1	0.699	0.624	0.463	0.495	0.427	0.438	0.267	0.279
